According to DBAASP:
≈ marks a conversion by molar mass, not a printed value. Values belong to the compound of their own block, whether it stands above or below them.

Columns and labels:
Assay in all cases: ≥ marks a high value that may be exact or a test limit, other limits are often not marked, values filed in µg/mL are converted to µM
[1] = system: Klebsiella pneumoniae
[2] = system: Candida albicans ATCC 90028
[3] = system: Klebsiella pneumoniae ATCC BAA-2146
[4] = system: Staphylococcus aureus ATCC 43300
[5] = system: Acinetobacter baumannii ATCC 19606
[6] = system: Cryptococcus neoformans ATCC 208821
[7] = system: Klebsiella pneumoniae ATCC 700603
[8] = system: Acinetobacter baumannii
[9] = system: Pseudomonas aeruginosa ATCC 27853
[10] = system: Klebsiella pneumoniae ATCC 13883
[11] = system: Pseudomonas aeruginosa
[12] = system: Escherichia coli ATCC 25922
[13] = system: Bacillus subtilis ATCC 6051
[14] = system: Staphylococcus aureus ATCC 29213
[15] = system: Escherichia coli SBS 363
[16] = system: Candida albicans ATCC 10231
[17] = system: Aureobasidium pullulans
[18] = system: Corynebacterium glutamicum ATCC 13032
[19] = system: Staphylococcus aureus ATCC 9144
[20] = system: Escherichia coli UB1005
[21] = system: Pseudomonas aeruginosa K799
[22] = system: Salmonella enterica subsp. enterica serovar Typhimurium ATCC 14028s
[23] = system: Enterococcus faecalis ATCC 29212
[24] = system: Staphylococcus aureus ATCC 25923
[25] = system: Staphylococcus epidermidis C621
[26] = system: Bacillus subtilis ATCC 23857
[27] = system: Bacillus megaterium
[28] = system: Micrococcus luteus
[29] = system: Salmonella typhimurium KCTC 1926
[30] = system: Pseudomonas aeruginosa CCARM 2002
[31] = system: Staphylococcus aureus KCTC 1621
[32] = system: Acinetobacter baumannii KCTC 2508
[33] = system: Bacillus subtilis KCTC 3068
[34] = system: Salmonella typhimurium CCARM 8007
[35] = system: Escherichia coli CCARM 1229
[36] = system: Pseudomonas aeruginosa KCTC 2004
[37] = system: Staphylococcus aureus CCARM 3126
[38] = system: Escherichia coli KCTC 1682
[39] = system: Acinetobacter baumannii CCARM 12035
[40] = system: Staphylococcus epidermidis KCTC 1917

SMILES: CC[C@H](C)[C@@H]1NC(=O)CNC(=O)[C@H](C)NC(=O)[C@H](Cc2ccc(O)cc2)NC(=O)[C@@H]2CSSC[C@H](NC1=O)C(=O)N[C@@H](Cc1ccc(O)cc1)C(=O)N[C@@H](CCCN=C(N)N)C(=O)N[C@@H](CCCN=C(N)N)C(=O)N[C@H](C(=O)N[C@@H](CCCN=C(N)N)C(=O)O)CSSC[C@H](NC(=O)[C@H](Cc1c[nH]c3ccccc13)NC(=O)[C@@H](N)CCCCN)C(=O)N[C@@H](Cc1ccccc1)C(=O)N[C@@H](CCCN=C(N)N)C(=O)N[C@@H](CCCN=C(N)N)C(=O)N2 [KWCFRRCYAGICYRRCR]
- MIC [1]: > 7.14 µM
- MIC [2]: 7.14 µM (≈ 16 µg/mL)
- MIC [3]: 7.14 µM (≈ 16 µg/mL)
- MIC [4]: > 7.14 µM
- MIC [5]: 7.14 µM (≈ 16 µg/mL)
- MIC [6]: 1.79 µM (≈ 3.99 µg/mL)
- MIC [7]: 7.14 µM (≈ 16 µg/mL)
- MIC [8]: 7.14 µM (≈ 16 µg/mL)
- MIC [9]: > 7.14 µM
- MIC [10]: 7.14 µM (≈ 16 µg/mL)
- MIC [11]: > 7.14 µM
- MIC [12]: 0.223 µM (≈ 0.499 µg/mL)
- MIC [13]: 0.112 µM (≈ 0.25 µg/mL)

SMILES: CC[C@H](C)[C@H](NC(=O)[C@@H]1CSSC[C@H](NC(=O)[C@@H](NC(=O)[C@@H](N)CCCN=C(N)N)[C@@H](C)CC)C(=O)N[C@@H](CCCN=C(N)N)C(=O)N[C@@H]([C@@H](C)CC)C(=O)N[C@@H](C(C)C)C(=O)N[C@@H](C(C)C)C(=O)N[C@@H]([C@@H](C)CC)C(=O)N[C@@H](CCCN=C(N)N)C(=O)N1)C(=O)N[C@@H](CCCN=C(N)N)C(N)=O [RICRIVVIRCIR]
- MIC [20]: 2.67 µM (≈ 3.99 µg/mL)
- MIC [21]: 10.7 µM (≈ 16 µg/mL)
- MIC [22]: 5.33 µM (≈ 7.98 µg/mL)
- MIC [23]: > 21.3 µM
- MIC [24]: 21.3 µM (≈ 31.9 µg/mL)
- MIC [25]: 5.33 µM (≈ 7.98 µg/mL)

SMILES: CC[C@H](C)[C@@H]1NC(=O)CNC(=O)[C@H](CCCN=C(N)N)NC(=O)[C@H](Cc2ccc(O)cc2)NC(=O)[C@@H]2CSSC[C@H](NC1=O)C(=O)N[C@@H](Cc1ccc(O)cc1)C(=O)N[C@@H](CCCN=C(N)N)C(=O)N[C@@H](CCCN=C(N)N)C(=O)N[C@H](C(=O)N[C@@H](CCCN=C(N)N)C(=O)O)CSSC[C@H](NC(=O)[C@H](Cc1c[nH]c3ccccc13)NC(=O)[C@@H](N)CCCCN)C(=O)N[C@@H](Cc1ccccc1)C(=O)N[C@@H](CCCN=C(N)N)C(=O)N[C@@H](C)C(=O)N2 [KWCFRACYRGICYRRCR]
- MIC [1]: 7.14 µM (≈ 16 µg/mL)
- MIC [2]: 3.57 µM (≈ 7.99 µg/mL)
- MIC [3]: 0.446 µM (≈ 0.998 µg/mL)
- MIC [4]: 1.79 µM (≈ 3.99 µg/mL)
- MIC [5]: 0.112 µM (≈ 0.25 µg/mL)
- MIC [6]: 0.446 µM (≈ 0.998 µg/mL)
- MIC [7]: 0.446 µM (≈ 0.998 µg/mL)
- MIC [8]: 0.223 µM (≈ 0.499 µg/mL)
- MIC [9]: 0.446 µM (≈ 0.998 µg/mL)
- MIC [10]: 0.112 µM (≈ 0.25 µg/mL)
- MIC [11]: 0.893 µM (≈ 2 µg/mL)
- MIC [12]: 0.112 µM (≈ 0.25 µg/mL)
- MIC [13]: 0.112 µM (≈ 0.25 µg/mL)

More lines, now with the values ahead:

- MIC [14]: > 250 µM
- MIC [15]: ≥ 250 µM
- MIC [12]: > 250 µM
SMILES: CC(C)C[C@H](NC(=O)CN)C(=O)N[C@@H](Cc1ccccc1)C(=O)N[C@@H](CCCCN)C(=O)NCC(=O)N[C@@H](CCCCN)C(=O)N[C@@H](CCCCN)C(=O)N[C@@H](CCCCN)C(=O)N[C@@H](CC(N)=O)C(=O)N[C@@H](CCCCN)C(=O)N[C@@H](CCCCN)C(=O)N[C@H](C(=O)N[C@@H](CCCCN)C(N)=O)[C@@H](C)O [GLFKGKKKNKKTK]

- MIC [16]: 100 µM (≈ 188 µg/mL)
- MIC [17]: ≥ 100 µM
- MIC [18]: 0.4 µM (≈ 0.753 µg/mL)
- MIC [19]: 12.5 µM (≈ 23.5 µg/mL)
- MIC [9]: 25 µM (≈ 47.1 µg/mL)
- MIC [12]: 6.3 µM (≈ 11.9 µg/mL)
SMILES: CC(C)[C@H](NC(=O)[C@H](CCCCN)NC(=O)[C@H](C)NC(=O)[C@@H](NC(=O)[C@@H](NC(=O)[C@H](CCCN=C(N)N)NC(=O)[C@H](CCCN=C(N)N)NC(=O)[C@H](Cc1c[nH]c2ccccc12)NC(=O)[C@@H](N)Cc1c[nH]c2ccccc12)[C@@H](C)O)C(C)C)C(=O)N[C@@H](CCCN=C(N)N)C(=O)N[C@@H](CC(N)=O)C(=O)N[C@@H](C)C(=O)NCC(=O)N[C@@H](CCCN=C(N)N)C(=O)N[C@@H](CCCCN)C(N)=O [WWRRTVAKVRNAGRK]

- MIC [16]: > 237 µM
- MIC [26]: ≥ 237 µM
- MIC [17]: ≥ 237 µM
- MIC [27]: ≥ 237 µM
- MIC [18]: ≥ 237 µM
- MIC [19]: ≥ 237 µM
- MIC [9]: > 237 µM
- MIC [12]: > 237 µM
- MIC [28]: ≥ 237 µM
SMILES: C[C@H](NC(=O)[C@H](CCCCN)NC(=O)[C@H](Cc1c[nH]c2ccccc12)NC(=O)CNC(=O)CNC(=O)[C@@H]1CCCN1C(=O)[C@H](CCCCN)NC(=O)[C@H](CCCCN)NC(=O)CN)C(=O)N[C@@H](CCCCN)C(N)=O [GKKPGGWKAK]

- MIC [16]: 109 µM (≈ 125 µg/mL)
- MIC [26]: ≥ 109 µM
- MIC [17]: ≥ 54.6 µM
- MIC [27]: 3.41 µM (≈ 3.9 µg/mL)
- MIC [18]: 27.3 µM (≈ 31.3 µg/mL)
- MIC [19]: ≥ 218 µM
- MIC [9]: > 218 µM
- MIC [12]: > 218 µM
- MIC [28]: ≥ 218 µM
SMILES: C[C@H](NC(=O)[C@H](CCCCN)NC(=O)[C@H](Cc1c[nH]c2ccccc12)NC(=O)CNC(=O)CNC(=O)[C@H](Cc1c[nH]c2ccccc12)NC(=O)[C@H](CCCCN)NC(=O)[C@H](CCCCN)NC(=O)CN)C(=O)N[C@@H](CCCCN)C(N)=O [GKKWGGWKAK]

- MIC [29]: ≥ 32 µM
- MIC [30]: 16 µM (≈ 24.5 µg/mL)
- MIC [31]: 8 µM (≈ 12.2 µg/mL)
- MIC [32]: 8 µM (≈ 12.2 µg/mL)
- MIC [33]: 16 µM (≈ 24.5 µg/mL)
- MIC [34]: 16 µM (≈ 24.5 µg/mL)
- MIC [35]: 16 µM (≈ 24.5 µg/mL)
- MIC [36]: 8 µM (≈ 12.2 µg/mL)
- MIC [37]: 16 µM (≈ 24.5 µg/mL)
- MIC [38]: 8 µM (≈ 12.2 µg/mL)
- MIC [39]: 8 µM (≈ 12.2 µg/mL)
- MIC [40]: 16 µM (≈ 24.5 µg/mL)
SMILES: CC[C@H](C)[C@H](NC(=O)[C@H](CCCCN)NC(=O)[C@H](Cc1c[nH]c2ccccc12)NC(=O)[C@@H](N)CCCN=C(N)N)C(=O)N[C@@H](Cc1ccccc1)C(=O)N[C@@H](CCCCN)C(=O)N[C@@H](CCCCN)C(=O)N[C@H](C(=O)N[C@H](C(=O)N[C@@H](CCCCN)C(=O)N[C@@H](CCCCN)C(=O)N[C@@H](C)C(N)=O)C(C)C)C(C)C [RWKIFKKVVKKA]
